According to ChEMBL document CHEMBL1857833, “Screening and optimization of specific chemical series against human African Trypanosomiasis (HAT)”:
Converted amounts (≈) assume the structure as drawn.

Assays:
[1] = DNDI: Cytotoxicity against L929 mouse fibroblasts, 72 hour.; type: toxicity, cell-based; conditions: mouse, L929 mouse fibroblasts
Trypanosoma brucei = experiment: DNDI: Inhibition of Human African Trypanosomiasis, SBRI 427, in vitro; type: functional, organism-based; conditions: Trypanosoma brucei, SBRI 427; read-out: IC50
[2] = mouse, microsomes, 1 µM
Description: DNDI: in vitro intrinsic clearance in mouse liver microsomes at a concentration of 1uM

in vitro = conditions: mouse, liver microsomes, t (1 / 2)
Description: DNDI: half life in mouse liver microsomes at a concentration of 1uM

[3] = DNDI: Cytotoxicity against L929 mouse fibroblasts, CYTO-SP, 24 hour; type: toxicity, cell-based; conditions: mouse, L929 mouse fibroblasts

| Structure (SMILES) | IC50 at 72 h [1] [µg/mL] | IC50 (Trypanosoma brucei) [µg/mL] | CLint in vitro [2] [µL/min/mg] | half-life at 1 µM (in vitro) [min] | IC50 at 24 h [3] [µg/mL] |
| --- | --- | --- | --- | --- | --- |
| Cc1ccc(Cc2ccccc2/C(=N/O)NC2CCCCC2)cc1 | 3.48 (≈ 10.8 µM) | 1.17 (≈ 3.63 µM) | 318 | 3 |  |
| CCCC(CCC)NCc1coc(-c2ccc(Cl)cc2)n1 | 5.72 (≈ 18.6 µM) | 2.08 (≈ 6.78 µM) |  |  | 38.4 (≈ 125 µM) |
| C[C@H](NCc1coc(-c2ccc(Cl)cc2)n1)C1CCCCC1 | < 3.13 | 2.29 (≈ 7.18 µM) |  |  | > 50 |
| CCOCCCNC(c1nc(-c2ccccc2)c(N2CCCCC2)o1)C(C)CC (centres undefined) | 4.44 (≈ 11.1 µM) | 2.72 (≈ 6.81 µM) | 255 | 3 |  |
| Clc1ccc(-c2nc(CNc3ccccc3)co2)cc1 | 10.5 (≈ 36.9 µM) | > 5 |  |  | > 50 |
| CCCCc1ccc(-c2nc(CNCC)co2)cc1 | 5.42 (≈ 21 µM) | 0.89 (≈ 3.44 µM) | 76 | 11 |  |
| CCCCCC(C)NCc1coc(-c2cc(F)ccc2F)n1 (centres undefined) | 13.2 (≈ 42.7 µM) | 2.69 (≈ 8.72 µM) |  |  | 36 (≈ 117 µM) |
| CCCCCC(C)NCc1coc(-c2ccc(OCCOCC)cc2)n1 (centres undefined) | 5.78 (≈ 16 µM) | 1.57 (≈ 4.36 µM) | 42 | 20 |  |
| CCC(C)C(NCc1ccco1)c1nc(-c2ccccc2)c(N2CCCCC2)o1 (centres undefined) | > 10 | 4.9 (≈ 12.5 µM) | 206 | 4 |  |
| C[C@@H]1[C@H]2C[C@@H](C[C@H]1NCc1coc(-c3sccc3Cl)n1)C2(C)C | > 50 | > 5 |  |  | > 50 |
| O/N=C(/NC1CCCCC1)c1cccnc1Oc1ccc(F)cc1 | > 10 | 1.4 (≈ 4.25 µM) | 389 | 2 |  |
| CCCCCC(C)NCc1ccccc1-c1ccccc1 (centres undefined) | 4.68 (≈ 16.6 µM) | 1.35 (≈ 4.8 µM) |  |  | > 50 |
| Clc1ccsc1-c1nc(CNC2CCCCCC2)co1 | 11.8 (≈ 38.1 µM) | > 5 |  |  | > 50 |
| c1cc(-c2nc(CNC3CCCCCC3)co2)ccc1OC1CCCCC1 | 1.29 (≈ 3.5 µM) | 0.43 (≈ 1.17 µM) | 11 | 78 |  |
| O/N=C(/NC1CCCCC1)c1cccnc1Oc1ccc(Cl)cc1 | > 10 | 0.93 (≈ 2.69 µM) | 367 | 2 |  |
| CCCCCC(C)NCc1coc(-c2cccc(OC(F)(F)F)c2)n1 (centres undefined) | 6.48 (≈ 18.2 µM) | 1.45 (≈ 4.07 µM) |  |  | > 50 |
| CCCCCC(C)NCc1coc(-c2ccc(F)c(F)c2)n1 (centres undefined) | 6.34 (≈ 20.6 µM) | 1.74 (≈ 5.64 µM) |  |  | 37 (≈ 120 µM) |
| Clc1ccsc1-c1nc(CNC2[C@H]3C[C@@H]4C[C@@H](C[C@H]2C4)C3)co1 (some centres undefined) | 10.6 (≈ 30.3 µM) | > 5 |  |  | > 50 |
| COc1ccccc1CNC(CCc1ccccc1)c1nc(-c2ccccc2)c(N2CCOCC2)o1 (centres undefined) | > 10 | 4.15 (≈ 8.58 µM) | 344 | 2 |  |
| CCCCCC(C)NCc1coc(-c2cccc(Oc3ccccc3)c2)n1 (centres undefined) | 1.76 (≈ 4.83 µM) | 1.14 (≈ 3.13 µM) | 14 | 63 |  |
| O/N=C(\NC1CCCCC1)c1ccccc1Cc1ccccc1 | 4.57 (≈ 14.8 µM) | 1.19 (≈ 3.86 µM) | 381 | 2 |  |

| Structure (SMILES) | IC50 at 72 h [1] [µg/mL] | IC50 (Trypanosoma brucei) [µg/mL] | CLint in vitro [2] [µL/min/mg] | half-life at 1 µM (in vitro) [min] | IC50 at 24 h [3] [µg/mL] |
| --- | --- | --- | --- | --- | --- |
| CCCCCC(C)NCc1coc(-c2ccc(F)cc2F)n1 (centres undefined) | 12.4 (≈ 40.3 µM) | 2.97 (≈ 9.63 µM) |  |  | > 50 |
| Clc1ccc(-c2nc(CN[C@]34C[C@H]5C[C@H](C[C@H](C5)C3)C4)co2)cc1 | 37.6 (≈ 110 µM) | > 5 |  |  | > 50 |
| CCCCCC(C)NC(=O)c1coc(-c2ccccc2)n1 (centres undefined) | 27.2 (≈ 95 µM) | > 5 |  |  | > 50 |
| CCCCc1ccc(-c2nc(CNCc3cccnc3)co2)cc1 | > 10 | > 5 | 44 | 19 |  |
| CN(Cc1coc(-c2ccc(Cl)cc2)n1)C1CCCCC1 | 11.4 (≈ 37.4 µM) | 2.7 (≈ 8.86 µM) |  |  | > 50 |
| CCCCc1ccc(-c2nc(CN3CCOCC3)co2)cc1 | > 10 | > 5 | 348 | 2 |  |
| CC1(C)[C@H]2CC[C@@H](CNCc3ccc(-c4ccccc4)s3)[C@@H]1C2 | 6.63 (≈ 20.4 µM) | 1.02 (≈ 3.13 µM) |  |  | > 50 |
| Clc1ccc(-c2nc(CNC3CCCC3)co2)cc1 | 12.9 (≈ 46.8 µM) | 4.78 (≈ 17.3 µM) |  |  | > 50 |
| CCCCCC(C)NCc1coc(-c2ccc(OC3CCC3)cc2)n1 (centres undefined) | 2.36 (≈ 6.89 µM) | 0.88 (≈ 2.57 µM) | 9 | 98 |  |
| COc1ccc(/C(=N/O)Nc2cccc(-c3ccccc3)c2)cc1 | > 10 |  | 66 | 13 |  |
| Clc1ccc(-c2nc(CN3CCCCC3)co2)cc1 | 34.4 (≈ 124 µM) | > 5 |  |  | > 50 |
| Cc1cccc(CNC(c2ccccc2)c2nc(Cc3ccccc3)c(N3CCOCC3)o2)c1 (centres undefined) | > 10 | 5 (≈ 11 µM) | 217 | 4 |  |
| CCc1ccc(Oc2ncccc2/C(=N\O)NC2CCCC[C@H]2N)cc1 (some centres undefined) | > 10 | > 5 | 2 | 353 |  |
| CCCCc1ccc(-c2nc(CN3CCN(C)CC3)co2)cc1 | 3.75 (≈ 12 µM) | 2.22 (≈ 7.08 µM) | 31 | 27 |  |
| CC(C)Oc1ccc(-c2nc(CNC[C@@H]3CC[C@H]4C[C@@H]3C4(C)C)co2)cc1 | 1.36 (≈ 3.69 µM) | 1.06 (≈ 2.88 µM) | 45 | 19 |  |
| CC1(C)[C@H]2CC[C@@H](CNCc3coc(-c4sccc4Cl)n3)[C@@H]1C2 | > 50 | > 5 |  |  | > 50 |
| CCCCCC(C)NCc1coc(-c2ccc(OC(F)(F)F)cc2)n1 (centres undefined) | 3.56 (≈ 9.99 µM) | 1.11 (≈ 3.11 µM) |  |  | > 50 |
| CCCCc1ccc(-c2nc(CNC(C)C)co2)cc1 | 5.7 (≈ 20.9 µM) | 2.22 (≈ 8.15 µM) | 50 | 17 |  |
| CCCCCC(C)NCc1coc(-c2cccc(F)c2F)n1 (centres undefined) | 10.7 (≈ 34.5 µM) | 4.08 (≈ 13.2 µM) |  |  | > 50 |
| CCCCC[C@@H](C)NCc1coc(-c2ccc(Cl)cc2)n1 | 3.18 (≈ 10.4 µM) | 0.92 (≈ 3 µM) |  |  | > 50 |
| CCCCc1ccc(-c2nc(CNCc3ccc(OC)cc3)co2)cc1 | 3.13 (≈ 8.93 µM) |  | 16 | 53 |  |

| Structure (SMILES) | IC50 at 72 h [1] [µg/mL] | IC50 (Trypanosoma brucei) [µg/mL] | CLint in vitro [2] [µL/min/mg] | half-life at 1 µM (in vitro) [min] | IC50 at 24 h [3] [µg/mL] |
| --- | --- | --- | --- | --- | --- |
| COc1ccccc1CNC(c1nc(-c2ccccc2)c(N2CCOCC2)o1)C1CC1 (centres undefined) | > 10 | 5 (≈ 11.9 µM) | 300 | 3 |  |
| CCCCCC(C)NCc1coc(Cc2ccc(OC)cc2)n1 (centres undefined) | 10 (≈ 31.6 µM) | 3.24 (≈ 10.2 µM) | 55 | 16 |  |
| CCCCCC(C)NCc1coc(-c2cc(F)cc(F)c2)n1 (centres undefined) | 7.08 (≈ 23 µM) | 1.71 (≈ 5.55 µM) |  |  | 42 (≈ 136 µM) |
| Clc1ccc(-c2nc(CNC3CCCCC3)co2)cc1 | 6.85 (≈ 23.6 µM) | 1.86 (≈ 6.4 µM) |  |  | > 50 |
| CCCCCC(C)NCc1coc(-c2c(F)cccc2F)n1 (centres undefined) | 18.7 (≈ 60.6 µM) | 4.83 (≈ 15.7 µM) |  |  | > 50 |
| CCCCCC(C)OCc1coc(-c2ccccc2)n1 (centres undefined) | 27.7 (≈ 101 µM) | > 5 |  |  | > 50 |
| CCCCC[C@H](C)NCc1coc(-c2ccc(Cl)cc2)n1 | 7.01 (≈ 22.8 µM) | 1.76 (≈ 5.74 µM) |  |  | 37 (≈ 121 µM) |
| CCN(CC)Cc1coc(-c2ccc(Cl)cc2)n1 | 39.5 (≈ 149 µM) | > 5 |  |  | > 50 |
| CCCCC[C@@H](C)N(Cc1coc(-c2ccc(Cl)cc2)n1)Cc1coc(-c2ccc(Cl)cc2)n1 | > 50 | > 5 |  |  | > 50 |
| CCCCCC(C)NCc1coc(-c2cc3ccccc3s2)n1 (centres undefined) | 3.46 (≈ 10.5 µM) | 1.36 (≈ 4.14 µM) |  |  | > 50 |
| Cc1ccc(/C(=N/O)NC2CCCCC2)c(Oc2c(F)cccc2F)n1 | > 10 | 1.05 (≈ 2.91 µM) | 255 | 3 |  |
| Clc1ccc(-c2nc(CNC3CC4CCC3C4)co2)cc1 (centres undefined) | 3.47 (≈ 11.5 µM) | 2.81 (≈ 9.28 µM) |  |  | 40.7 (≈ 134 µM) |
| Cc1ccc(/C(=N/O)Nc2cccc(F)c2)c(Oc2ccc(C(C)(C)C)cc2)n1 | 5.39 (≈ 13.7 µM) | 0.32 (≈ 0.813 µM) | 31.75 | 26.8 |  |
| O=C(O)c1coc(-c2ccccc2)n1 | > 50 | > 5 |  |  | > 50 |
| CC1CC(NCc2coc(-c3sccc3Cl)n2)CC(C)(C)C1 (centres undefined) | > 50 | > 5 |  |  | > 50 |
| CCCCc1ccc(-c2nc(CNC(C)CC)co2)cc1 (centres undefined) | 2.75 (≈ 9.6 µM) | 0.74 (≈ 2.58 µM) | 42 | 20 |  |
| C[C@@H](NCc1coc(-c2ccc(Cl)cc2)n1)C1CCCCC1 | < 3.13 | 1.74 (≈ 5.46 µM) |  |  | > 50 |
| CCCCCC(C)NCc1coc(-c2ccc(SC(F)(F)F)cc2)n1 (centres undefined) | 3.64 (≈ 9.77 µM) | 1.12 (≈ 3.01 µM) |  |  | > 50 |
| CC(C)Oc1ccc(-c2nc(CN[C@@H]3C[C@@H]4C[C@H]([C@H]3C)C4(C)C)co2)cc1 | 1.9 (≈ 5.16 µM) | 1.37 (≈ 3.72 µM) | 11 | 79 |  |
| CCCCCC(C)NCc1coc(-c2ccccc2OC(F)(F)F)n1 (centres undefined) | 3.23 (≈ 9.06 µM) | 1.48 (≈ 4.15 µM) |  |  | 37 (≈ 104 µM) |
| CCCCCC(C)NCc1coc(-c2cccs2)n1 (centres undefined) | 13.5 (≈ 48.6 µM) | 3.83 (≈ 13.8 µM) |  |  | > 50 |
